Assay results taken from the supplement of paper PMC10307832.

Legend:
FG-4592 = compound: Cc1nc(C(=O)NCC(=O)O)c(O)c2ccc(Oc3ccccc3)cc12 [FG-4592]; assay: relative viability (nuclei count vs DMSO), 5 days (fraction); higher = more cells survive
How it was run: (§1)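 Nuclei counted with MetaXpress define viability as the ratio of treated to vehicle wells, given as a median across plates. The lung cancer cell lines were in 1536-well plates, pinned with five √10-spaced library-drug doses and imaged at 4× after 5 days and Hoechst staining. Plates passed with control CV below 25% and at least one doubling.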

IU1-47 = compound: CC1=CC(=C(N1C2=CC=C(C=C2)Cl)C)C(=O)CN3CCCCC3 [IU1-47]; assay: as above
How it was run: as §1

Row | Cell Line | relative viability (FG-4592; 0.08 µM) | relative viability (FG-4592; 0.253 µM) | relative viability (FG-4592; 0.8 µM) | relative viability (FG-4592; 2.53 µM) | relative viability (FG-4592; 8 µM) | relative viability (IU1-47; 0.08 µM) | relative viability (IU1-47; 0.253 µM) | relative viability (IU1-47; 0.8 µM) | relative viability (IU1-47; 2.53 µM) | relative viability (IU1-47; 8 µM)
1 | LK-2 | 0.78 | 0.918 | 0.685 | 0.883 | 0.778 | 1.23 | 1.05 | 0.988 | 0.905 | 0.934
2 | LOU-NH91 | 0.942 | 0.869 | 0.905 | 0.92 | 0.96 | 1.09 | 1.04 | 0.964 | 1.04 | 0.952
3 | LU99A | 0.91 | 0.862 | 0.748 | 0.972 | 0.961 | 0.977 | 0.898 | 1.1 | 0.953 | 0.972
4 | LXF-289 | 1.04 | 0.941 | 1.06 | 0.981 | 1.09 | 1.08 | 1.06 | 1.08 | 0.982 | 0.958
5 | NCI-H23 | 0.965 | 0.833 | 0.71 | 0.782 | 0.829 | 0.93 | 0.986 | 1.15 | 0.908 | 0.857
6 | NCI-H322M | 0.812 | 0.907 | 0.844 | 0.897 | 0.89 | 0.972 | 1.02 | 0.919 | 0.922 | 0.925
7 | NCI-H358 | 1.02 | 0.835 | 1.16 | 0.896 | 0.989 | 1 | 0.912 | 0.981 | 0.89 | 0.848
8 | NCI-H441 | 1.05 | 0.928 | 0.98 | 0.756 | 0.787 | 1.24 | 1.16 | 1.07 | 1.01 | 1.07
9 | NCI-H460 | 0.965 | 0.947 | 1.03 | 1 | 1.02 | 1.04 | 0.987 | 1.08 | 0.955 | 1.01
10 | NCI-H520 | 0.873 | 0.897 | 0.827 | 0.943 | 0.761 | 0.989 | 0.973 | 0.981 | 0.879 | 0.849
11 | NCI-H522 | 0.958 | 0.947 | 0.761 | 0.992 | 0.823 | 0.959 | 0.975 | 1.01 | 0.82 | 0.874
12 | NCI-H596 | 0.794 | 0.955 | – | 1.03 | 0.651 | 1.19 | 0.775 | 1.14 | 1.03 | 0.801
13 | NCI-H647 | 0.916 | 0.94 | 0.837 | 0.933 | 0.727 | 1.07 | 1.05 | 0.843 | 0.985 | 0.923
14 | NCI-H650 | 0.836 | 0.964 | 0.737 | 0.912 | 0.891 | 1.15 | 1.08 | 0.978 | 0.836 | 0.876
15 | NCI-H661 | 0.926 | 0.942 | 1.11 | 0.903 | 0.972 | 1.09 | 1.07 | 1.12 | 0.929 | 1.07
16 | NCI-H727 | 0.88 | 0.921 | 0.894 | 0.944 | 0.992 | 1.03 | 0.938 | 1.12 | 0.755 | 0.867
17 | NCI-H838 | 0.962 | 0.937 | 0.853 | 0.946 | 0.923 | 1.01 | 1.05 | 1.04 | 1.01 | 0.955
18 | NCI-H1299 | 0.974 | 0.98 | 0.982 | 0.99 | 1.02 | 0.995 | 1.05 | 1.06 | 1 | 1.02
19 | NCI-H1355 | 0.965 | 0.922 | – | 0.926 | 0.912 | 1.01 | 1.04 | 1.03 | – | 0.881
20 | NCI-H1395 | 0.86 | 0.795 | 0.672 | 0.975 | 0.761 | 0.879 | 0.953 | 0.884 | 0.534 | 0.791
21 | NCI-H1437 | 1 | 0.929 | 0.991 | 0.972 | 0.822 | 1.02 | 0.94 | 1.08 | 0.922 | 0.936
22 | NCI-H1563 | 0.946 | 0.958 | 0.922 | 0.988 | 0.888 | 0.985 | 0.983 | 1.12 | 0.944 | 1.05
23 | NCI-H1623 | 0.964 | 0.824 | 0.858 | 1.05 | 0.769 | 1.04 | 0.981 | 0.974 | 0.812 | 0.882
24 | NCI-H1648 | 0.798 | 0.926 | 0.907 | 0.83 | 1.28 | 0.947 | 1.17 | 1.17 | 0.557 | 0.552
25 | NCI-H1650 | 0.835 | 0.858 | 0.986 | 0.935 | 0.979 | 0.9 | 1.04 | 0.951 | 0.831 | 0.845
26 | NCI-H1651 | 0.973 | 0.941 | 0.921 | 0.961 | 0.915 | 0.978 | 0.995 | 1.01 | 0.918 | 0.983
